In general, IC50 refers to the midpoint of a concentration-inhibition curve. A high value points to weaker potency in that assay. Usually EC50 stands for the concentration giving half of the maximal effect.

Each structure is given as a SMILES string. A value given as a limit tells only on which side of the number the result lay.

For one assay, the target named is T1, PIP4K2A (Homo sapiens, UniProt P48426).
T1 construct: GST; made in house; host or cells: E. coli
T1 sequence (P48426 1-406): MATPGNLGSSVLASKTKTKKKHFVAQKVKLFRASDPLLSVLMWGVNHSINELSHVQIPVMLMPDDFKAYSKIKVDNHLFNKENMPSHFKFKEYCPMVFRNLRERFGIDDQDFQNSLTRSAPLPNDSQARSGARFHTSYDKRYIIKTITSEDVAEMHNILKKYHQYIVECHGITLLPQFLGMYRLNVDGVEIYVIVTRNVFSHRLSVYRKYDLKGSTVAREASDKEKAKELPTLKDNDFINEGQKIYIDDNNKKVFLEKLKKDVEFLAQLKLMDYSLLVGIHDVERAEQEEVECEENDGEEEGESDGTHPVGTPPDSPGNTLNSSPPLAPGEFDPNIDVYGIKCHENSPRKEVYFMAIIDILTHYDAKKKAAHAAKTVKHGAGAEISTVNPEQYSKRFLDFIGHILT
The experiment in a line: Kinase Assay - PIP4K2 A (inhibition of PIP4K2 A kinase assay). The assay is classed as biochemical. Particulars: compounds listed under IC50 bin headings. The method, then: Dilution series of the compounds were prepared in DMSO at 100 times the final assay concentration (n1=n0/3 in 10 points). The compounds were further diluted to three times the assay concentration in assay buffer (20 mM MOPS pH 7.2, 25 mM magnesium chloride, 0.005% Tween 20). 6 μL of the diluted compounds were added to a 384 well assay plate followed by 9 μL of a mix consisting of 4 nM PIP4K2A (full length protein, SignalChem) and 100 μM PI(5)P diC8 (Tebu-Bio). Enzyme and compounds were pre-incubated at room temperature for 15 minutes.
Then 3 μL of a solution containing 60 μM ATP (Promega) in assay buffer was added to the wells containing compound and enzyme and mixing was performed by pipetting several times. The reaction was incubated at room temperature for 1 h. Then 18 μL of ADP-Glo™ Reagent (Promega) was added to stop the kinase reaction and deplete the unconsumed ATP, mixing was performed by pipetting several times. The plate was incubated at room temperature for 40 minutes before addition of 36 μL of Kinase Detection Reagent (Promega) to convert ADP to ATP and introduce luciferase and luciferin to detect ATP. The reaction was incubated at room temperature for 40 minutes before the luminescence was measured in a in a Victor 3V 1420 multilabel counter (Perkin Elmer).
Percent inhibition of the compounds as compared to dimethyl sulfoxide treated control samples was calculated. Compound concentration versus percent inhibition were fitted to generate IC50 values. […]

For the next assay, the system named is MOLM-16. The experiment in a line: MOLM-16 EC50 assay. The assay is classed as cell-based. The settings on record: MOLM16.
Assay [1] deals with T2, PIP4K2 B (GST-tagged PIP4KtypeIIB) (Homo sapiens, UniProt P78356).
T2 construct: GST; made in house; host or cells: E. coli
T2 sequence (P78356 1-416): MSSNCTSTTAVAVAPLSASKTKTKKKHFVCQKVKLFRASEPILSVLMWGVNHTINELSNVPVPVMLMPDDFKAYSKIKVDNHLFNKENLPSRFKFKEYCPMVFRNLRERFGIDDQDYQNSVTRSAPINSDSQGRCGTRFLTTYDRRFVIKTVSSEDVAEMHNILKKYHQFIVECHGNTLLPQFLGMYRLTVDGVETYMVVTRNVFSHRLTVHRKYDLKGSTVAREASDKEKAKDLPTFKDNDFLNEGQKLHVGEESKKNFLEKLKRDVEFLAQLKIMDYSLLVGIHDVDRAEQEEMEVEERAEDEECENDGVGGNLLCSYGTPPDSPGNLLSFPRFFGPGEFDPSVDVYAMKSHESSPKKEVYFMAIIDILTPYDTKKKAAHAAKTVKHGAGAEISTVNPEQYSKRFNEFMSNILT
As to the kind of experiment: Kinase Assay - PIP4K2 B (inhibition of PIP4K2 B kinase assay). The assay is classed as biochemical. Particulars: compounds listed under IC50 bin headings. An excerpt: GST tagged PIP4KtypeIIA and B enzymes were overexpressed in E. Coli and purified to >80% homogeneity. Phosphatidyl inositol-5-phosphate (PI5P, Cat. #850152, Avanti Polar Lipids Inc.) was used as the lipid substrate and phosphatidyl ethanolamine (DOPE 18:1, Cat. #850725, Avanti Polar Lipids Inc.) was used as the carrier lipid for assays. Ultrapure ATP and GTP was purchased from Bellbrooke Labs. ADP Glo reagents were obtained from Promega. Transcreener FI reagent was obtained from Bellbrooke labs.
GST-tagged PIP4KtypeIIB (3.4 uL, 2.77 mg/mL) was diluted to 5 mL using HNE buffer to yield 5× enzyme stock (25 nM)
Lipid Preparation: In a 10 mL pyrex glass vial, 1 ug of PI5P and 1 ug of DOPE were suspended in 2.5 mL of HEPES buffer mix and 2.5 mL of H:E buffer. The contents were mixed and sonicated for 3 min to yield a translucent lipid stock.
Compound Preparation: Compounds were stored as 5 mM stocks in neat DMSO as room temperature in glass vials. 5 mM stocks were diluted to 2 mM and then serially diluted (3×) in neat DMSO in 96 well polypropylene plates. From the serially diluted stocks, 3 uL was delivered into 250 uL of 25% DMSO (in water) to generate 5× compound stocks. Typically, the highest compound conc. was 24 uM.
The assay volume was kept at 25 uL. To each well of the reaction plate, 10 uL of lipid stock (1:1 ratio PI5P:DOPE) was delivered. This was followed by the addition of 5 uL of compound in 25% DMSO. Then, to each well, 5 uL of 25 nM (5×) typeIIB enzyme was delivered. The contents were mixed well and incubated for 1 h at 27 C. After 1 h, reaction was initiated by adding 5 uL of 500 uM GTP and the contents were mixed well with a multi-channel pipetteman. The final concentration of the reagents are as follows: 50 mM HEPES, pH 7.3, 10 mM MgCl2, 20 mM NaCl, 0.01% v/v triton-X100, 5% DMSO, 100 uM GTP, 80 uM (2 ug) PI5P, 2 ug DOPE, and 5 nM PIP4KIIB Typically, the highest conc. of compounds was 4.8 uM and the lowest conc. was 0.
After 2 h, the reaction was quenched by adding 25 uL of transcreener FI reagent. The contents were incubated at RT for 1 h and the Fluorescence (Ex:584 Em: 623) was read using Molecular Devices Paradigm plate reader. […] The blanks were averaged and subtracted from all other wells. Using a calibration curve, RFU was converted to uM GDP (product). IC50 was calculated by plotting the residual activity (expressed as % No inhibitor control) vs. log [Inh. conc.]

Turning to `CNC(=O)N1CCOc2ncc(Nc3ncc4c(n3)C(C)(C)Oc3cc(N5CCCC5=O)ccc3-4)cc21` [Compound 7, 7-{[5,5-dimethyl-8-(2-oxopyrrolidin-1-yl)-5H-chromeno[3,4-d]pyrimidin-3-yl]amino}-N-methyl-1H,2H,3H-pyrido[2,3-b][1,4]oxazine-1-carboxamide], the IC50 was at most 1 nM on PIP4K2A and 1 to 10 nM in assay [1]. The compound further registered an EC50 in the assay with MOLM-16 of 10 to 100 nM.
Consider `CNC(=O)N1CCOc2ncc(Nc3ncc4c(n3)C(C)(C)Oc3cc(-n5nncc5C)ccc3-4)cc21` [Compound 8, 7-{[5,5-dimethyl-8-(5-methyl-1H-1,2,3-triazol-1-yl)-5H-chromeno[3,4-d]pyrimidin-3-yl]amino}-N-methyl-1H,2H,3H-pyrido[2,3-b][1,4]oxazine-1-carboxamide], for which the figures for the IC50 (against PIP4K2A; in assay [1]) were at most 1 nM and 1 to 10 nM, respectively. Further, the EC50 in the assay with MOLM-16 was in the range of 100 to 1000 nM.
`Cc1cnnn1-c1ccc2c(c1)OC(C)(C)c1nc(Nc3cnc4c(c3)N(C(=O)NC3CC3)CCO4)ncc1-2` [Compound 9, N-cyclopropyl-7-{[5,5-dimethyl-8-(5-methyl-1H-1,2,3-triazol-1-yl)-5H-chromeno[3,4-d]pyrimidin-3-yl]amino}-1H,2H,3H-pyrido[2,3-b][1,4]oxazine-1-carboxamide]: the IC50 at PIP4K2A is at most 1 nM; in assay [1], 1 to 10 nM. Moreover, the EC50 with MOLM-16 lay within 100 to 1000 nM.
As for `Cc1cnnn1-c1ccc2c(c1)OC(C)(C)c1nc(Nc3cnc4c(c3)N(C(=O)CN(C)C)CCO4)ncc1-2` [Compound 10, 1-(7-{[5,5-dimethyl-8-(5-methyl-1H-1,2,3-triazol-1-yl)-5H-chromeno[3,4-d]pyrimidin-3-yl]amino}-1H,2H,3H-pyrido[2,3-b][1,4]oxazin-1-yl)-2-(dimethylamino)ethan-1-one], the IC50 against PIP4K2A is at most 1 nM; in assay [1], 1 to 10 nM. This compound had an EC50 in the assay with MOLM-16 of 100 to 1000 nM.
As for `CNC(=O)N1CCOc2ncc(Nc3ncc4c(n3)C(C)(C)Oc3cc(-c5nocc5C)ccc3-4)cc21` [Compound 11, 7-{[5,5-dimethyl-8-(4-methyl-1,2-oxazol-3-yl)-5H-chromeno[3,4-d]pyrimidin-3-yl]amino}-N-methyl-1H,2H,3H-pyrido[2,3-b][1,4]oxazine-1-carboxamide], the IC50 is at most 1 nM on PIP4K2A and 1 to 10 nM in assay [1]. This compound also had an EC50 in the assay on MOLM-16 of 100 to 1000 nM.
The corresponding values for `CC(=O)OC(C)C(=O)N1CCOc2ncc(Nc3ncc4c(n3)C(C)(C)Oc3cc(-n5nncc5C)ccc3-4)cc21` (stereo not drawn) [Compound 12, 1-(7-{[5,5-dimethyl-8-(5-methyl-1H-1,2,3-triazol-1-yl)-5H-chromeno[3,4-d]pyrimidin-3-yl]amino}-1H,2H,3H-pyrido[2,3-b][1,4]oxazin-1-yl)-1-oxopropan-2-yl acetate] are at most 1 nM, 1 to 10 nM and above 1000 nM.
As for `Cc1cnnn1-c1ccc2c(c1)OC(C)(C)c1nc(Nc3cnc4c(c3)N(CC3COC3)CCO4)ncc1-2` [Compound 13, 5,5-dimethyl-8-(5-methyl-1H-1,2,3-triazol-1-yl)-N-{1-[(oxetan-3-yl)methyl]-1H,2H,3H-pyrido[2,3-b][1,4]oxazin-7-yl}-5H-chromeno[3,4-d]pyrimidin-3-amine], the figures for the IC50 (against PIP4K2A; in assay [1]) were at most 1 nM and 1 to 10 nM, respectively. The compound further gave an EC50 in the assay on MOLM-16 of 100 to 1000 nM.
`Cc1cnnn1-c1ccc2c(c1)OC(C)(C)c1nc(Nc3cncc(CNCCS(C)(=O)=O)c3)ncc1-2` [Compound 14, N-[5,5-dimethyl-8-(5-methyl-1H-1,2,3-triazol-1-yl)-5H-chromeno[3,4-d]pyrimidin-3-yl]-5-{[(2-methanesulfonylethyl)amino]methyl}pyridin-3-amine]: the values for the IC50 (against PIP4K2A; in assay [1]) were at most 1 nM and 1 to 10 nM, respectively. The compound further had an EC50 in the assay on MOLM-16 above 1000 nM.

The values are drawn from patent US11498929B2, “Chromenopyrimidine derivatives as phosphatidylinsitol phosphate kinase inhibitors” (Hibercell, Inc., priority 2019, dated 2022).
